Test results as given in patent US12440496B2, “Natriuretic peptide receptor a agonists useful for the treatment of cardiometabolic diseases, kidney disease and diabetes” (Merck Sharp & Dohme LLC, priority 2019, dated 2025).
pEC50: −log10 of the molar value. Structures can show the parent of a compound that is named as a salt.

Molecular target: T1, hNPRA (Homo sapiens, UniProt P16066)
T1 construct: expressed in transfected cells
T1 sequence (P16066 33-1061): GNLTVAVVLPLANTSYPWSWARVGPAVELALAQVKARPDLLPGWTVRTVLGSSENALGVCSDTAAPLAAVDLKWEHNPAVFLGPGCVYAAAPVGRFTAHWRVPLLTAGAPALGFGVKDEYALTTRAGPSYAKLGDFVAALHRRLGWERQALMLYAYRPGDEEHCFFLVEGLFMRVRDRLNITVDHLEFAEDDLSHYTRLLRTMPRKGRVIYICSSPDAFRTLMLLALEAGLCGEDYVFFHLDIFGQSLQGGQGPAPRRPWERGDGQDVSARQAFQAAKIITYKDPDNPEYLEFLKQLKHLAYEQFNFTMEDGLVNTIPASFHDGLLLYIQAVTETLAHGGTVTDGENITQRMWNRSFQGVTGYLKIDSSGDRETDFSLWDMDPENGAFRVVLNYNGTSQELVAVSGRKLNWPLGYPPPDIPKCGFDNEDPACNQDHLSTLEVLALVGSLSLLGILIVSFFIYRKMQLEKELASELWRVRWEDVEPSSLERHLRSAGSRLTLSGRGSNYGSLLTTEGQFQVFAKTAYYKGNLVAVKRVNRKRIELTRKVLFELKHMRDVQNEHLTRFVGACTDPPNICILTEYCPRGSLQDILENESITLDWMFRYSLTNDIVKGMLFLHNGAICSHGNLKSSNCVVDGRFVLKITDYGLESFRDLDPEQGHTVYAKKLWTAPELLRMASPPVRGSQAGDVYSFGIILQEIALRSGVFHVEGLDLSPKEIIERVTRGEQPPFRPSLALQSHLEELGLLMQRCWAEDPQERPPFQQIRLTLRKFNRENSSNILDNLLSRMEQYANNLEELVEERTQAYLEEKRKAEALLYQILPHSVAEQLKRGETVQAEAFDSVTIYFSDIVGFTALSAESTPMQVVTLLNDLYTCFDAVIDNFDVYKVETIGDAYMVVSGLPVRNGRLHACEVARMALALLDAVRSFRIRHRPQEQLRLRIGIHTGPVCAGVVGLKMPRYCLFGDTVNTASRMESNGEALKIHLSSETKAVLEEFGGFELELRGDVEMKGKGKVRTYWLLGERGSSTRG
Experiment: NPRA Functional Cell Assay (cGMP HTRF, NPRA HEK JumpIn stable cells)
Type: cell-based
Details: cGMP production, 1 hour at 37° C., 10-point dose response
Procedure, shortened: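 cGMP HTRF read-out after 1 hour compound treatment at 37° C. of human NPRA-expressing HEK JumpIn cells, 1500 cells/well, in buffer with phosphodiesterase inhibitors IBMX and RO20 (100 uM each). Signal converted to [cGMP] by calibration curve; EC50s fitted by 4-parameter logistic; 50 nM h-ANP as positive response.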

Row | pEC50 | Compound
1 | 6.29 | CCN(CC)CC[C@@H](NC(=O)c1nc2cc3c(nc2s1)CC[C@H](C(C)(C)C)C3)c1ccc(-c2cnc(O)c(F)c2)cc1 (racemic) [Example 202, diethyl-[rac-(3R)-3-[4-(5-fluoro-6-hydroxy-3-pyridyl)phenyl]-3-[[rac-(7S)-7-tert-butyl-5,6,7,8-tetrahydrothiazolo[5,4-b]quinoline-2-carbonyl]amino]propyl]ammonium; formate]
2 | 6.14 | CC1([C@H]2CCc3nc4sc(C(=O)N[C@H](CCN5CCC(O)CC5)c5ccc(N6CCOC6=O)cc5)nc4cc3C2)CC1 [Example 231, (S)-N-((R)-3-(4-hydroxypiperidin-1-yl)-1-(4-(2-oxooxazolidin-3-yl)phenyl)propyl)-7-(1-methylcyclopropyl)-5,6,7,8-tetrahydrothiazolo[5,4-b]quinoline-2-carboxamide]
3 | 6.03 | CN1CC(NC(=O)c2cccc([C@@H](CCN3CC[C@H](C(=O)O)C3)NC(=O)c3nc4cc5c(nc4s3)CC[C@H](C(C)(C)C)C5)c2)C1 (racemic) [Example 113, rac-(3S)-1-[rac-(3R)-3-[3-[(1-methylazetidin-1-ium-3-yl)carbamoyl]phenyl]-3-[[rac-(7S)-7-tert-butyl-5,6,7,8-tetrahydrothiazolo[5,4-b]quinoline-2-carbonyl]amino]propyl]pyrrolidine-3-carboxylic acid; 2,2,2-trifluoroacetate]
4 | 5.78 | CC(C)(C)[C@H]1CCc2nc3sc(C(=O)N[C@H](CCN4CCC(O)CC4)c4cccc(N5CCOC5=O)c4)nc3cc2C1 (racemic) [Example 120, rac-(7S)-7-tert-butyl-N-[rac-(1R)-3-(4-hydroxypiperidin-1-ium-1-yl)-1-[3-(2-oxooxazolidin-3-yl)phenyl]propyl]-5,6,7,8-tetrahydrothiazolo[5,4-b] quinoline-2-carboxamide; 2,2,2-trifluoroacetate]
5 | 6.17 | CC1(O)CCN(CC[C@@H](NC(=O)c2cc3cc4c(nc3s2)CC[C@H](C(C)(C)C)C4)c2ccc(-c3ccc(=O)[nH]c3)cc2)CC1 (racemic) [Example 45, rac-(6S)-6-tert-butyl-N-[rac-(1R)-3-(4-hydroxy-4-methyl-piperidin-1-ium-1-yl)-1-[4-(6-oxo-1H-pyridin-3-yl)phenyl]propyl]-5,6,7,8-tetrahydrothieno[2,3-b]quinoline-2-carboxamide;formate]
6 | 5.74 | CN(C)CC[C@@H](NC(=O)c1nc2cc3c(nc2s1)CC[C@H](C(C)(C)C)C3)c1cccc(C(N)=O)c1 (racemic) [Example 99, rac-(7S)-7-tert-butyl-N-[rac-(1R)-1-(3-carbamoylphenyl)-3-(dimethylamino)propyl]-5,6,7,8-tetrahydrothiazolo[5,4-b] quinoline-2-carboxamide]
7 | 5.20 | CC(C)(C)[C@H]1CCc2nc3sc(C(=O)N[C@H](CCNC4CCOCC4)c4ccccc4)cc3cc2C1 [Example 248, (6S)-6-tert-butyl-N-[(1R)-1-phenyl-3-(tetrahydro-2H-pyran-4-ylamino)propyl]-5,6,7,8-tetrahydrothieno[2,3-b]quinoline-2-carboxamide]
8 | 6.62 | CC1([C@H]2CCc3nc4sc(C(=O)N[C@H](CCN5CCC(O)CC5)c5ccc(N6CC(=O)NC6=O)nc5)nc4cc3C2)CC1 [Example 218, (S)-N-((R)-1-(6-(2,4-dioxoimidazolidin-1-yl)pyridin-3-yl)-3-(4-hydroxypiperidin-1-yl)propyl)-7-(1-methylcyclopropyl)-5,6,7,8-tetrahydrothiazolo[5,4-b]quinoline-2-carboxamide]
9 | 6.73 | CN1CC(NC(=O)c2cccc([C@@H](CCN3CCC(CO)CC3)NC(=O)c3nc4cc5c(nc4s3)CC[C@H](C(C)(C)C)C5)c2)C1 (racemic) [Example 104, rac-(7S)-7-tert-butyl-N-[rac-(1R)-3-[4-(hydroxymethyl)-1-piperidyl]-1-[3-[(1-methylazetidin-1-ium-3-yl)carbamoyl]phenyl]propyl]-5,6,7,8-tetrahydrothiazolo[5,4-b] quinoline-2-carboxamide; 2,2,2-trifluoroacetate]
10 | 6.16 | CN(C)CC[C@@H](NC(=O)c1nc2cc3c(nc2s1)CC[C@H](C(C)(C)C)C3)c1cccc(C(=O)NCCO)c1 (racemic) [Example 95, rac-(7S)-7-tert-butyl-N-[rac-(1R)-3-(dimethylamino)-1-[3-(2-hydroxyethylcarbamoyl)phenyl]propyl]-5,6,7,8-tetrahydrothiazolo[5,4-b] quinoline-2-carboxamide]
11 | 6.00 | Cc1[nH]cnc1-c1ccc([C@@H](CCN2CCC(O)CC2)NC(=O)c2nc3cc4c(nc3s2)CC[C@H](C(C)(C)C)C4)cc1 (racemic) [Example 174, rac-(7S)-7-tert-butyl-N-[rac-(1R)-3-(4-hydroxy-1-piperidyl)-1-[4-(5-methyl-1H-imidazol-4-yl)phenyl]propyl]-5,6,7,8-tetrahydrothiazolo[5,4-b]quinoline-2-carboxamide]
12 | 6.08 | CC(C)(C)[C@H]1CCc2nc3sc(C(=O)N[C@H](CCN4CCC(O)CC4)c4cccc(C(=O)N5CC(O)C5)c4)nc3cc2C1 (racemic) [Example 156, rac-(7S)-7-tert-butyl-N-[rac-(1R)-1-[3-(3-hydroxyazetidine-1-carbonyl)phenyl]-3-(4-hydroxy-1-piperidyl)propyl]-5,6,7,8-tetrahydrothiazolo[5,4-b]quinoline-2-carboxamide]
13 | 6.08 | CC(C)(C)[C@H]1CCc2nc3sc(C(=O)N[C@H](CCN4CCC(F)CC4)c4cccc(NS(C)(=O)=O)c4)cc3cc2C1 (racemic) [Example 14, ammonium; methylsulfonyl-[3-[rac-(1R)-3-(4-fluoro-1-piperidyl)-1-[[rac-(6S)-6-tert-butyl-5,6,7,8-tetrahydrothieno[2,3-b]quinoline-2-carbonyl]amino]propyl]phenyl] azanide]
14 | 5.70 | CC(C)(C)[C@H]1CCc2nc3sc(C(=O)N[C@H](CCN4C[C@H](O)C[C@H]4CO)c4ccc(-c5ccc(=O)[nH]c5)cc4)cc3cc2C1 (racemic) [Example 71, rac-(6S)-6-tert-butyl-N-[rac-(1R)-1-[4-(6-oxo-1H-pyridin-3-yl)phenyl]-3-[rac-(2S,4R)-4-hydroxy-2-(hydroxymethyl)pyrrolidin-1-ium-1-yl]propyl]-5,6,7,8-tetrahydrothieno[2,3-b]quinoline-2-carboxamide;formate]
15 | 7.15 | CC(C)[C@]1(F)CCc2nc3sc(C(=O)N[C@H](CCN4CCC(O)CC4)c4ccc(N5CCOCS5(=O)=O)nc4)nc3cc2C1 [Example 217, (S)-N-((R)-1-(6-(3,3-dioxido-1,3,4-oxathiazinan-4-yl)pyridin-3-yl)-3-(4-hydroxypiperidin-1-yl)propyl)-7-fluoro-7-isopropyl-5,6,7,8-tetrahydrothiazolo[5,4-b]quinoline-2-carboxamide]
16 | 5.75 | CC(C)(C)[C@H]1CCc2nc3sc(C(=O)N[C@H](CCNC4COC4)c4cccc(NS(C)(=O)=O)c4)cc3cc2C1 (racemic) [Example 21, ammonium; methylsulfonyl-[3-[rac-(1R)-3-(oxetan-3-ylamino)-1-[[rac-(6S)-6-tert-butyl-5,6,7,8-tetrahydrothieno[2,3-b]quinoline-2-carbonyl]amino]propyl]phenyl]azanide]
17 | 6.05 | CC(C)(C)[C@H]1CCc2nc3sc(C(=O)N[C@H](CCN4CCC[C@H]4CO)c4ccccc4)cc3cc2C1 [Example 257, (6S)-6-tert-butyl-N-{(1R)-3-[(2S)-2-(hydroxymethyl)pyrrolidin-1-yl]-1-phenylpropyl}-5,6,7,8-tetrahydrothieno[2,3-b]quinoline-2-carboxamide]
18 | 6.90 | CN1CC[C@@H](NC(=O)c2cccc([C@@H](CCN3CCC(O)CC3)NC(=O)c3nc4cc5c(nc4s3)CC[C@H](C(C)(C)C)C5)c2)C1 (racemic) [Example 134, rac-(7S)-7-tert-butyl-N-[rac-(1R)-3-(4-hydroxy-1-piperidyl)-1-[3-[[rac-(3R)-1-methylpyrrolidin-3-yl]carbamoyl]phenyl]propyl]-5,6,7,8-tetrahydrothiazolo[5,4-b]quinoline-2-carboxamide]
19 | 5.78 | CC(C)(C)[C@H]1CCc2nc3sc(C(=O)N[C@H](CCN4CCC(O)CC4)c4ccc(-c5cnsn5)cc4)nc3cc2C1 (racemic) [Example 183, rac-(7S)-7-tert-butyl-N-[rac-(1R)-3-(4-hydroxy-1-piperidyl)-1-[4-(1,2,5-thiadiazol-3-yl)phenyl]propyl]-5,6,7,8-tetrahydrothiazolo[5,4-b]quinoline-2-carboxamide]
